The source of these data is the Deep4Chem optical property database.

Structures are written as SMILES.

A short description of this data set: photoluminescence quantum yield (fraction); solvent given as SMILES.

In the case of `CC(=O)O[B-]1(OC(C)=O)OC(/C=C/c2ccc(C)cc2)=CC(/C=C/c2ccc(C)cc2)=[O+]1`, the photoluminescence quantum yield (in C1CCOC1) was 0.75; the photoluminescence quantum yield (in CC#N) worked out at 0.55; the photoluminescence quantum yield (in CC(C)=O) is 0.58; the photoluminescence quantum yield (in CS(C)=O) worked out at 0.51; the photoluminescence quantum yield (in Cc1ccccc1) came out at 0.88; the photoluminescence quantum yield (in ClC(Cl)Cl) was determined as 0.63. The same molecule came in with a photoluminescence quantum yield (in ClCCl) of 0.56.
As to `CN(C)c1ccc(/C=C/C=C2\CC/C(=C\c3ccc(N(C)C)cc3)C2=O)cc1`, the photoluminescence quantum yield is, setting by setting: (in C1CCOC1) 0.16; (in CC#N) 0.29; (in CC(C)=O) 0.31; (in CC(C)O) 0.33; (in CCCCCC) 0.007; (in CCCCO) 0.36. For the same molecule, the photoluminescence quantum yield runs as follows: (in CCCCOC(C)=O) 0.16; (in CCCO) 0.34; (in CCO) 0.23; (in CCOC(=O)c1ccccc1) 0.24; (in CCOC(C)=O) 0.2; (in CCOCC) 0.073. For the same molecule, the photoluminescence quantum yield reads like this: (in CN(C)C=O) 0.36; (in CO) 0.11; (in CS(C)=O) 0.4; (in Cc1ccccc1) 0.11; (in ClC(Cl)(Cl)Cl) 0.068; (in ClC(Cl)Cl) 0.27. For the same molecule, the photoluminescence quantum yield worked out at 0.36 (in ClCCl); 0.24 (in Clc1ccccc1Cl); 0.13 (in S=C=S); 0.13 (in c1ccccc1); 0.38 (in c1ccncc1).
With `CN(C)c1ccc(C#Cc2cc(C#Cc3ccc(N(C)C)cc3)c3ccc4c(C#Cc5ccc(N(C)C)cc5)cc(C#Cc5ccc(N(C)C)cc5)c5ccc2c3c54)cc1`, the photoluminescence quantum yield (in ClCCl) amounted to 0.6.
As for `COc1ccc(O[B-]2(Oc3ccc(OC)cc3)n3c(C)cc(C)c3C(c3ccc(I)cc3)=C3C(C)=CC(C)=[N+]32)cc1`, under “in ClC(Cl)Cl”, the photoluminescence quantum yield came to 0.004.
`CCCC1(CCC)c2cc(-c3ccc(OC)cc3)ccc2-c2ccc(-c3ccc4c(c3)C(CCC)(CCC)c3cc(-c5ccc(OC)cc5)ccc3-4)cc21` returned a photoluminescence quantum yield (in C1CCCCC1) of 1.
In the case of `c1ccc(Nc2nc(Nc3ccccc3)nc(Nc3cc4ccc5cccc6ccc(c3)c4c56)n2)cc1`, the photoluminescence quantum yield runs as follows: (in CC#N) 0.19; (in CCCCOCCCC) 0.21; (in CO) 0.21.
The molecule `COc1cc2cc(C#Cc3ccc(/C=C(\C#N)C(=O)O)cc3)c(=O)oc2cc1OC` displayed a photoluminescence quantum yield (in CC#N) of 0.05.
On to `c1ccc(-c2nc(-c3ccccc3)nc(-c3ccc(-c4ccc5c(c4)C4(c6ccccc6-c6ccccc64)c4cc(-c6ccc(-c7nc(-c8ccccc8)nc(-c8ccccc8)n7)cc6)ccc4N5c4ccccc4)cc3)n2)cc1`, for which, where the note is “in c1cc(-c2cccc(-n3c4ccccc4c4ccccc43)c2)cc(-n2c3ccccc3c3ccccc32)c1”, the photoluminescence quantum yield is 0.94.
Where the note is “in Cc1ccccc1”, `CCCC1=Cc2nc1ccc1[nH]c(cc1CCC)c1nc(c(NC(=O)CCCC(=O)OC)cc3[nH]c2cc3CCC)C(CCC)=C1` returned a photoluminescence quantum yield of 0.2.
Turning to `CCCCCCOc1ccc(C#Cc2ccc(C#CC#Cc3ccc(C#Cc4ccc(OCCCCCC)c(OCCCCCC)c4)c4nsnc34)c3nsnc23)cc1OCCCCCC`, the photoluminescence quantum yield by setting is: (in CN(C)C=O) 0.006; (in COc1ccccc1) 0.43; (in Cc1ccccc1) 0.58; (in ClC(Cl)Cl) 0.49; (in ClCCCl) 0.27; (in ClCCl) 0.36.
`c1ccc(-c2nc(-c3ccccc3)nc(-c3ccc(N4c5ccccc5C5(c6ccccc6-c6ccccc65)c5ccccc54)cc3)n2)cc1` showed a photoluminescence quantum yield (in O=P(c1ccccc1)(c1ccccc1)c1ccccc1Oc1ccccc1P(=O)(c1ccccc1)c1ccccc1) of 0.801.
As to `CCOC(=O)CN1C(=O)C2=C(c3ccc(C#N)cc3)N(CC(=O)OCC)C(=O)C2=C1c1ccccc1`, the photoluminescence quantum yield stood at 0.75 (in CC#N), 0.51 (in CS(C)=O) and 0.43 (in Cc1ccccc1).
On to `CCCCCCC(CCCCCC)N1C(=O)c2cccc3c(-c4cc(OC)c(OC)c(OC)c4)ccc(c23)C1=O`, for which the photoluminescence quantum yield came to 0.41 (in CCCCCC); 0.51 (in CCCCCCCCCCCCCC); 0.26 (in CCCCCCCCCCCO); 0.022 (in CCCCO); 0.0065 (in CN(C)C=O); 0.71 (in Cc1ccccc1). This molecule also came in with a photoluminescence quantum yield (in ClC(Cl)Cl) of 0.65.
Under “in CO”, `CC1(C)C(/C=C/C2=C(Oc3ccc(CCN=C=S)cc3Br)C(=C/C=C3/N(CCCS(=O)(=O)[O-])c4ccccc4C3(C)C)/CCC2)=[N+](CCCS(=O)(=O)[O-])c2ccccc21` returned a photoluminescence quantum yield of 0.14.
Where the note is “in CC#N”, `COc1ccccc1-c1nc2c([nH]1)C1=CC(=O)S[C@]1(C)[C@@]1(C)SC(=O)C=C21` gave a photoluminescence quantum yield of 0.11.
`COc1ccc(C(=Cc2ccc(/C=C(\C#N)c3ccc([N+](=O)[O-])cc3)cc2)c2ccc(OC)cc2)cc1` displayed a photoluminescence quantum yield (in C1CCOC1) of 0.045.
For `CCOc1ccc2c(-c3nc(-c4ccccc4F)no3)cc(=O)oc2c1`, the photoluminescence quantum yield was determined as 0.64 (in CCO) and 0.36 (in ClC(Cl)Cl).
Take `O=[N+]([O-])c1ccc(F)cc1C1CC(c2cccc3ccccc23)=NN1c1ccccc1` (configuration not stated): the photoluminescence quantum yield (in C1CCCCC1) turned out to be 0.24; the photoluminescence quantum yield (in C1CCOC1) is 0.3; the photoluminescence quantum yield (in C1COCCO1) was found to be 0.46; the photoluminescence quantum yield (in CC#N) was determined as 0.2; the photoluminescence quantum yield (in CC(C)O) is 0.19; the photoluminescence quantum yield (in CCOC(C)=O) came to 0.15. Moreover, the photoluminescence quantum yield amounted to 0.2 (in CCOCC); 0.14 (in CO); 0.22 (in Cc1ccccc1); 0.12 (in ClC(Cl)Cl); 0.12 (in O).
Molecule `c1ccc(N(c2ccccc2)c2ccc(-c3ncc(-c4ccc(-c5ccc(-c6cnc(-c7ccc(N(c8ccccc8)c8ccccc8)cc7)s6)s5)s4)s3)cc2)cc1` returned a photoluminescence quantum yield (in CO) of 0.16.
As for `CCCCC(CC)CN1C(=O)c2cccc3c(C#Cc4ccc(N(c5ccccc5)c5ccc(C#Cc6ccc7c8c(cccc68)C(=O)N(CC(CC)CCCC)C7=O)cc5)cc4)ccc(c23)C1=O` (configuration not stated), the photoluminescence quantum yield was 0.93 (in C1CCCCC1); 0.85 (in C1CCOC1); 0.012 (in CC#N); 0.94 (in Cc1ccccc1); 0.44 (in ClC(Cl)Cl).
`C=Cc1cc2ccccc2oc1=O` had a photoluminescence quantum yield (in CC#N) of 0.08.
Regarding `Cc1ccc2c(c1)c(C#N)c(C#N)c1cc(C)ccc12`, the photoluminescence quantum yield (in ClC(Cl)Cl) stood at 0.15.
Consider `COc1ccc(C2=Nc3sc(-c4ccccc4)n[n+]3[B-](F)(F)O2)cc1`, for which, under “in Cc1ccccc1”, the photoluminescence quantum yield was 0.29.
Take `N#Cc1c(N2CCCCC2)cc(-c2ccc(-c3ccccc3)cc2)c2c1CCc1ccccc1-2`: the photoluminescence quantum yield (in C1CCOC1) is 0.38.
Turning to `CC(=O)Nc1ccc(C2=C/C(=C\c3ccc([N+](=O)[O-])cc3)C(=O)O2)cc1`, the photoluminescence quantum yield (in C1COCCO1) was found to be 0.043.
Turning to `Cc1ccc(-c2cc(/C=C/c3ccc(N(c4ccccc4)c4ccccc4)cc3)c(C#N)c(N3CCCCC3)c2)cc1`, the photoluminescence quantum yield (in CS(C)=O) is 0.58.
`CC(C)n1c(=O)c2cc3ccc4cccc5ccc(c2c1=O)c3c45` returned a photoluminescence quantum yield (in ClC(Cl)Cl) of 0.49.
With `CCCCCCn1c2ccccc2c2cc3c4cc5c6ccccc6n(CCCCCC)c5cc4c4cc5c(C)cc(=O)oc5cc4c3cc21`, the photoluminescence quantum yield (in ClC(Cl)Cl) was 0.12.
Still for that read-out and setting: under `CC(C)c1cccc(C(C)C)c1-n1c(=O)c2cc3nc(-c4ccccc4)c4cc5c(=O)n(-c6c(C(C)C)cccc6C(C)C)c(=O)c6cc7c(-c8ccccc8)nc8cc(c1=O)c2c1c3c4c(c56)c7c81` stands 0.1.
On to `C/C(=C\c1ccccc1)c1nc2ccccc2o1`, for which the photoluminescence quantum yield runs as follows: (in C1CCCCC1) 0.007; (in CO) 0.002.
Turning to `CC(C)(C)c1ccc(C(C)(C)C)c(N2C(=O)c3cccc4c(-c5ccc(-c6ccccc6)s5)ccc(c34)C2=O)c1`, the photoluminescence quantum yield is, setting by setting: (in CO) 0.34; (in CS(C)=O) 0.43; (in Cc1ccccc1) 0.06.
In the case of `Cc1ccccc1-c1cc(-c2ccc(N3c4ccccc4C(C)(C)c4ccccc43)cc2)nc(-c2ccccc2)n1`, the photoluminescence quantum yield (in CC#N) came out at 0.101, the photoluminescence quantum yield (in Cc1ccccc1) came out at 0.777 and the photoluminescence quantum yield (in ClCCl) was found to be 0.884.
As to `O=S(=O)([O-])c1ccccc1/C=C/c1ccc(-c2nnc(-c3ccc(/C=C/c4ccccc4S(=O)(=O)[O-])cc3)o2)cc1`, the photoluminescence quantum yield turned out to be 0.22 (in C1CCOC1), 0.17 (in CC(C)=O) and 0.75 (in CN(C)C=O).
For `Clc1ccc(-c2nc3ccccc3c3cc4ccccn4c23)s1`, the photoluminescence quantum yield (in CS(C)=O) was 0.11.
Regarding `CC(C)[Si](C#Cc1c2cc3ccccc3cc2c(C#C[Si](C(C)C)(C(C)C)C(C)C)c2cc3ccccc3cc12)(C(C)C)C(C)C`, for the setting “in ClCCl”, the photoluminescence quantum yield worked out at 0.15.
With `CN(C)c1ccc2ccc3oc(=O)c(-c4ccccc4)nc3c2c1`, for the setting “in c1ccccc1”, the photoluminescence quantum yield was found to be 0.152.
For the setting “in ClCCl”, `CCOC(=O)c1ccc(C2CC(c3cccc4ccccc34)=NN2c2ccc(C#N)cc2)cc1` (configuration not stated) came in with a photoluminescence quantum yield of 0.258.
For the molecule `CC(=O)n1cc(/C=C/c2ccc([N+](=O)[O-])cc2)c2ccccc21`, the photoluminescence quantum yield was found to be 0.045 (in CC#N), 0.008 (in CCCCCCC), 0.002 (in CO) and 0.003 (in O).
Molecule `N#Cc1ccc(C#Cc2ccccc2C#N)cc1` showed a photoluminescence quantum yield (in ClC(Cl)Cl) of 0.452.
`COC(=O)C([NH3+])Cc1ccc2oc(-c3ccncc3)nc2c1` (configuration not stated): the photoluminescence quantum yield reads like this: (in CC1CCCCC1) 0.01; (in CC#N) 0.05; (in CO) 0.18; (in O) 0.22.
Where the note is “in ClCCl”, `CCOC(=O)/N=c1/oc2cc(OC)cc(OC)c2cc1C#N` gave a photoluminescence quantum yield of 0.059.
